Reference: the supplement of paper PMC11208160

experiment: recombinant UMI read abundance after kanamycin selection (control-corrected) (log10(CPM+1)); higher = more efficient recombination; extreme values may be limits of the assay; sequences stand for … in AGTGCAGAGAAAATCGGCCAGTTTTCTCTGCCTGCAGTCCGCATGCCGTGGGACCCCTTGGGTTCTAACCTGTTGCCTAGATTTATGCAGCGGACTGCCTTTCTCCCAAAGTGATAAACCGG…AGGTTGGTTTCACT; site = the 11-nt donor
Summary of the method: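 Each donor and donor-binding-loop pair was tracked by a 12-nt UMI on a plasmid carrying a promoterless kanamycin gene. With a second plasmid supplying a fixed target and T7-inducible IS621 bridge recombinase, the pool was plated in Escherichia coli on IPTG (0.07 mM) plus kanamycin or unselected. Sequencing of recombinant UMIs across the donor–target junction gave counts expressed as log10(CPM+1) after replicate averaging and control-derived scaling.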
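Also: IS621 bridge recombinase in Escherichia coli cells against a fixed T5 target plasmid.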

Sequence | recombinant UMI read abundance (log10)
CCTAAAGCATGGACCGGTTTTCCCGGTAATCCGTATTTGAT (site CCTAAAGCTAC) | 0
CCTAAAGCATGGACCGGTTTTCCCGGTAATCCGTATTTGAT (site CCTAAAGCTAG) | 0
CCTAAAGCATGGACCGGTTTTCCCGGTAATCCGTATTTGAT (site CCTAAAGCTAT) | 0.14
CCTAAAGCATGGACCGGTTTTCCCGGTAATCCGTATTTGAT (site CCTAAAGCTCT) | 0.00392
CCTAAAGCATGGACCGGTTTTCCCGGTAATCCGTATTTGAT (site CCTAAAGCTGT) | 0
CCTAAAGCATGGACCGGTTTTCCCGGTAATCCGTATTTGAT (site CCTAAAGCTTT) | 0
CCTAAAGCATGGACCGGTTTTCCCGGTAATCCGTATTTGAT (site CCTAAATCTAT) | 0
CCTAAAGCATGGACCGGTTTTCCCGGTAATCCGTATTTGAT (site CCTAACGCTAT) | 0.035
CCTAAAGCATGGACCGGTTTTCCCGGTAATCCGTATTTGAT (site CCTAAGGCTAT) | 0
CCTAAAGCATGGACCGGTTTTCCCGGTAATCCGTATTTGAT (site CCTAATGCTAT) | 0.00544
CCTAAAGCATGGACCGGTTTTCCCGGTAATCCGTATTTGAT (site CCTACAGCTAT) | 0.0037
CCTAAAGCATGGACCGGTTTTCCCGGTAATCCGTATTTGAT (site CCTAGAGCTAT) | 0.00698
CCTAAAGCATGGACCGGTTTTCCCGGTAATCCGTATTTGAT (site CCTATAGCTAT) | 0.00347
CCTAAAGCATGGACCGGTTTTCCCGGTAATCCGTATTTGAT (site CCTCAAGCTAT) | 0.00248
CCTAAAGCATGGACCGGTTTTCCCGGTAATCCGTATTTGAT (site CCTGAAGCTAT) | 0
CCTAAAGCATGGACCGGTTTTCCCGGTAATCCGTATTTGAT (site CCTTAAGCTAT) | 0.0074
CCTAAAGCATGGACCGGTTTTCCCGGTAATCCGTATTTGAT (site CGTAAAGCTAT) | 0
CCTAAAGCATGGACCGGTTTTCCCGGTAATCCGTATTTGAT (site CTTAAAGCTAT) | 0.00697
CCTAAAGCATGGACCGGTTTTCCCGGTAATCCGTATTTGAT (site GCTAAAGCTAT) | 0
CCTAAAGCATGGACCGGTTTTCCCGGTAATCCGTATTTGAT (site TCTAAAGCTAT) | 0.00543
CCTAAAGCATGGACCGGTTTTCCCGGTAATCCGTATTTGGA (site CCTAAAGCTTC) | 0.0116
CCTAAGACATGGACCGGTTTTCCCGGTAATCCGTATTTGGC (site CCTAAAACTGC) | 0
CCTAAGACATGGACCGGTTTTCCCGGTAATCCGTATTTGGC (site CCTAACACTGC) | 0

Sequence | recombinant UMI read abundance (log10)
CCTAAGACATGGACCGGTTTTCCCGGTAATCCGTATTTGGC (site CCTAAGACTGC) | 0
CCTAAGACATGGACCGGTTTTCCCGGTAATCCGTATTTGGC (site CCTAATACTGC) | 0
CCTAAGGCATGGACCGGTTTTCCCGGTAATCCGTATTTGAT (site CCTAAAGCTAT) | 0
CCTAAGGCATGGACCGGTTTTCCCGGTAATCCGTATTTGAT (site CCTAACGCTAT) | 0.00671
CCTAAGGCATGGACCGGTTTTCCCGGTAATCCGTATTTGAT (site CCTAAGGCTAT) | 0.0186
CCTAAGGCATGGACCGGTTTTCCCGGTAATCCGTATTTGAT (site CCTAATGCTAT) | 0
CCTAATACATGGACCGGTTTTCCCGGTAATCCGTATTTGGC (site ACTAATACTGC) | 0
CCTAATACATGGACCGGTTTTCCCGGTAATCCGTATTTGGC (site CATAATACTGC) | 0
CCTAATACATGGACCGGTTTTCCCGGTAATCCGTATTTGGC (site CCAAATACTGC) | 0
CCTAATACATGGACCGGTTTTCCCGGTAATCCGTATTTGGC (site CCCAATACTGC) | 0
CCTAATACATGGACCGGTTTTCCCGGTAATCCGTATTTGGC (site CCGAATACTGC) | 0
CCTAATACATGGACCGGTTTTCCCGGTAATCCGTATTTGGC (site CCTAAAACTGC) | 0.00801
CCTAATACATGGACCGGTTTTCCCGGTAATCCGTATTTGGC (site CCTAACACTGC) | 0
CCTAATACATGGACCGGTTTTCCCGGTAATCCGTATTTGGC (site CCTAAGACTGC) | 0
CCTAATACATGGACCGGTTTTCCCGGTAATCCGTATTTGGC (site CCTAATACTAC) | 0.0181
CCTAATACATGGACCGGTTTTCCCGGTAATCCGTATTTGGC (site CCTAATACTCC) | 0.00819
CCTAATACATGGACCGGTTTTCCCGGTAATCCGTATTTGGC (site CCTAATACTGA) | 0.0391
CCTAATACATGGACCGGTTTTCCCGGTAATCCGTATTTGGC (site CCTAATACTGC) | 0
CCTAATACATGGACCGGTTTTCCCGGTAATCCGTATTTGGC (site CCTAATACTGG) | 0
CCTAATACATGGACCGGTTTTCCCGGTAATCCGTATTTGGC (site CCTAATACTGT) | 0
CCTAATACATGGACCGGTTTTCCCGGTAATCCGTATTTGGC (site CCTAATACTTC) | 0.00574
CCTAATACATGGACCGGTTTTCCCGGTAATCCGTATTTGGC (site CCTAATCCTGC) | 0.00798
CCTAATACATGGACCGGTTTTCCCGGTAATCCGTATTTGGC (site CCTAATGCTGC) | 0

Sequence | recombinant UMI read abundance (log10)
CCTAATACATGGACCGGTTTTCCCGGTAATCCGTATTTGGC (site CCTAATTCTGC) | 0
CCTAATACATGGACCGGTTTTCCCGGTAATCCGTATTTGGC (site CCTACTACTGC) | 0.0125
CCTAATACATGGACCGGTTTTCCCGGTAATCCGTATTTGGC (site CCTAGTACTGC) | 0
CCTAATACATGGACCGGTTTTCCCGGTAATCCGTATTTGGC (site CCTATTACTGC) | 0
CCTAATACATGGACCGGTTTTCCCGGTAATCCGTATTTGGC (site CCTCATACTGC) | 0
CCTAATACATGGACCGGTTTTCCCGGTAATCCGTATTTGGC (site CCTGATACTGC) | 0.00582
CCTAATACATGGACCGGTTTTCCCGGTAATCCGTATTTGGC (site CCTTATACTGC) | 0
CCTAATACATGGACCGGTTTTCCCGGTAATCCGTATTTGGC (site CGTAATACTGC) | 0
CCTAATACATGGACCGGTTTTCCCGGTAATCCGTATTTGGC (site CTTAATACTGC) | 0
CCTAATACATGGACCGGTTTTCCCGGTAATCCGTATTTGGC (site GCTAATACTGC) | 0
CCTAATACATGGACCGGTTTTCCCGGTAATCCGTATTTGGC (site TCTAATACTGC) | 0
CCTAATTCATGGACCGGTTTTCCCGGTAATCCGTATTTGAT (site CCTAATTCTAT) | 0
CCTACAGCATGGACCGGTTTTCCCGGTAATCCGTATTTGAT (site CCTAAAGCTAT) | 0
CCTACAGCATGGACCGGTTTTCCCGGTAATCCGTATTTGAT (site CCTACAGCTAT) | 0.00631
CCTACAGCATGGACCGGTTTTCCCGGTAATCCGTATTTGAT (site CCTAGAGCTAT) | 0
CCTACAGCATGGACCGGTTTTCCCGGTAATCCGTATTTGAT (site CCTATAGCTAT) | 0.002
CCTAGAGCATGGACCGGTTTTCCCGGTAATCCGTATTTGAT (site CCTAAAGCTAT) | 0
CCTAGAGCATGGACCGGTTTTCCCGGTAATCCGTATTTGAT (site CCTACAGCTAT) | 0.00404
CCTAGAGCATGGACCGGTTTTCCCGGTAATCCGTATTTGAT (site CCTAGAGCTAT) | 0.00624
CCTAGAGCATGGACCGGTTTTCCCGGTAATCCGTATTTGAT (site CCTATAGCTAT) | 0
CCTAGCACATGGACCGGTTTTCCCGGTAATCCGTATTTGGT (site CCTAGCACTAC) | 0.00677
CCTAGGTCATGGACCGGTTTTCCCGGTAATCCGTATTTGAA (site CCTAGGTCTTT) | 0.213
